From paper PMC11110727, “Exploiting thiol-functionalized benzosiloxaboroles for achieving diverse substitution patterns – synthesis, characterization and biological evaluation of promising antibacterial agents” (RSC Medicinal Chemistry, 2024) come the findings set out here.

For one experiment, the system named is E. faecalis ATCC 29212. Kind of experiment: Antibacterial activity: MIC/MBC determination and disc-diffusion. It counts as cell-based. The note with it: Enterococcus faecalis, ATCC29212, E. faecalis ATCC 29212; for MIC: read-out: MIC. As for the experimental part:
(§1) Direct antimicrobial activity was determined against the following standard strains: (1) Gram-positive cocci: methicillin-sensitive Staphylococcus aureus ATCC 6538P (MSSA), methicillin-resistant S. aureus subsp. aureus ATCC 43300 (MRSA), S. epidermidis ATCC 12228, Enterococcus faecium ATCC 6057, E. faecalis ATCC 29212, Bacillus subtilis ATCC 6633; (2) Gram-negative bacteria from Enterobacteriales order: Klebsiella pneumoniae ATCC 13883, Escherichia coli ATCC 25922, Enterobacter cloacae DSM 6234, Proteus mirabilis ATCC 12453, Serratia marcescens ATCC 13880; (3) Gram-negative non-fermentative rods: Acinetobacter baumannii ATCC 19606, Pseudomonas aeruginosa ATCC 27853, Stenotrophomonas maltophilia ATCC 12714, S. maltophilia ATCC 13637, Burkholderia cepacia ATCC 25416, Bordetella bronchiseptica ATCC 4617; (4) yeasts: Candida albicans ATCC 90028, C. krusei ATCC 6258, C. parapsilosis ATCC 22019, C. tropicalis (Castellani) Berkhout ATCC 750, C. tropicalis IBA 171, C. guilliermondii IBA 155, and Saccharomyces cerevisiae ATCC 9763. Moreover, 5 clinical strains of methicillin-resistant S. aureus were also included: NMI 664 K, NMI 1576 K, NMI 1712 K, NMI 1991 K, and NMI 2541 K. All strains were stored at −80 °C. Prior to testing, each bacterial strain was subcultured twice on tryptic soy agar TSA (bioMerieux) medium and yeast strains on Sabouraud dextrose agar (bioMerieux) for 24–48 h at 30 °C to ensure viability. The antimicrobial activity was evaluated as previously described[26] by the disc-diffusion method and the MIC determination assays according to the EUCAST (ref. [71] and [72]) and CLSI (ref. [53] and [73]) recommendations. Assessment of bactericidal (MBC) and fungicidal (MFC) activities was performed according to the CLSI recommendations.[54,74] The following reference agents were used: fluconazole (in the case of fungi), linezolid (for Gram-positive bacteria), and nitrofurantoin (for Gram-negative rods). The new benzosiloxaboroles were dissolved in DMSO (Sigma).
On the technique in general: A growth-free zone around the sample is the usual read-out of agar diffusion tests.

The test system of another experiment is E. faecium ATCC 6057. The experiment is described as above. The format is cell-based. As to conditions: Enterococcus faecium, ATCC6057, E. faecium ATCC 6057; for MIC: read-out: MIC. As for the experimental part:
as §1

Experiment [1] concerns S. aureus ATCC 43300 MRSA. The description is as above. The format is cell-based. As to conditions: Staphylococcus aureus, S. aureus ATCC 43300 MRSA; for MBC: read-out: MBC (first MBC where Eagle effect); for MIC: read-out: MIC. The method, then: as §1
In experiment [2] the test system is S. epidermidis ATCC 12228. The description is as above. The format is cell-based. The note with it: Staphylococcus epidermidis, ATCC12228, S. epidermidis ATCC 12228; for MIC: read-out: MIC. As for the experimental part:
as §1

The subject of another experiment is K. pneumoniae ATCC 13883. Kind of experiment: Antibacterial activity: MIC/MBC, MIC with PAβN, disc-diffusion. It counts as cell-based, Klebsiella pneumoniae. The note with it: K. pneumoniae ATCC 13883; for MIC: Klebsiella pneumoniae, ATCC13883, read-out: MIC. As for the experimental part:
as §1, with “The following reference agents were used: fluconazole (in the case of fungi), linezolid (for Gram-positive bacteria), and nitrofurantoin (for Gram-negative rods).” left out
(§2) Considering that the MDR efflux pumps often contribute to Gram-negative rod resistance, the MIC values of studied agents, with or without the pump inhibitor, PAβN (20 μg mL^−1) (Sigma), were determined.[75] The MIC was determined using Mueller–Hinton II broth medium (MHB) (Becton Dickinson) by the broth microdilution method, according to the CLSI guideliness.[53] To minimize the influence of PAβN on the destabilization of bacterial cell covers, the tests were conducted in the presence of 1 mM MgSO4 (Sigma).[76] At least a 4-fold reduction in the MIC value after the addition of PAβN was considered significant.[56,77]

The next experiment concerns S. marcescens ATCC 13880. Described as above. The format is cell-based, Serratia marcescens. As to conditions: Serratia marcescens, ATCC13880; S. marcescens ATCC 13880; read-out: MIC. As for the experimental part:
as §1, with “The following reference agents were used: fluconazole (in the case of fungi), linezolid (for Gram-positive bacteria), and nitrofurantoin (for Gram-negative rods).” left out
as §2

Experiment [3] has as its system C. guilliermondii IBA 155. Kind of experiment: Antifungal activity: MIC/MFC, disc-diffusion. The format is cell-based. The note with it: for MIC: Meyerozyma guilliermondii, IBA155, read-out: MIC. The method in brief:
(§3)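 Inhibitory and cidal concentrations (MIC; MBC/MFC) were measured following CLSI, with EUCAST also applied to MIC and disc-diffusion testing. Each strain was revived from −80 °C stocks by two passages at 30 °C for 24–48 h.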

Experiment [4] concerns C. parapsilosis ATCC 22019. Kind of experiment: Antifungal activity: MIC/MFC, disc-diffusion. It counts as cell-based. As to conditions: Lodderomyces parapsilosis, ATCC22019; read-out: MIC. The method in brief:
as §3

The test system of another experiment is C. tropicalis ATCC 750. Kind of experiment: Antifungal activity: MIC/MFC, disc-diffusion. It counts as cell-based. As to conditions: Candida tropicalis, ATCC750; read-out: MIC. The method in brief:
as §3

A further experiment relates to S. cerevisiae ATCC 9763. Kind of experiment: Antifungal activity: MIC/MFC, disc-diffusion. It counts as cell-based, Saccharomyces cerevisiae. The note with it: for diameter of inhibition zone: (-) = zone not observed, paper discs 9 mm; for MIC: read-out: MIC. The method, then: as §1
Where [5] appears, read: Saccharomyces cerevisiae, ATCC9763.

SMILES strings stand for the structures. ≈ marks a conversion by molar mass, not a printed value. Where only a bound is given, the exact number is not on record here.

What is called MBC is the smallest concentration meeting the test's criterion for killing. Broadly, the MIC is the lowest concentration that inhibits growth of the organism. Take `C[Si]1(C)OB(O)c2cc(F)c(S)c(F)c21` [Compound 1e, 5,7-Difluoro-6-mercapto-1,1-dimethylbenzo[c][1,2,5]oxasilaborol-3(1H)-ol]: the minimal bactericidal concentration (MBC) stood at 100 µg/mL (≈ 406 µM) against E. faecalis ATCC 29212, 400 µg/mL (≈ 1630 µM) against E. faecium ATCC 6057, 25 µg/mL (≈ 102 µM) in experiment [1] and 50 µg/mL (≈ 203 µM) in experiment [2]. The minimum inhibitory concentration (MIC) was 12.5 µg/mL (≈ 50.8 µM) with E. faecalis ATCC 29212; 12.5 µg/mL (≈ 50.8 µM) in the experiment on E. faecium ATCC 6057; 12.5 µg/mL (≈ 50.8 µM) in experiment [1]; 1.56 µg/mL (≈ 6.34 µM) in [2]; greater than 400 µg/mL with K. pneumoniae ATCC 13883; greater than 400 µg/mL in the experiment with S. marcescens ATCC 13880. Moreover, the MIC in [3] is greater than 400 µg/mL; in [4], 400 µg/mL (≈ 1630 µM); with C. tropicalis ATCC 750 it was 400 µg/mL (≈ 1630 µM); with S. cerevisiae ATCC 9763 (setting [5]), 200 µg/mL (≈ 813 µM). Besides, the “diameter of inhibition zone” value in the experiment with S. cerevisiae ATCC 9763 (S. cerevisiae ATCC 9763) amounted to 17 mm.
For the compound `C[Si]1(C)OB(O)c2ccc(S)c(F)c21` [Compound 2e, 7-Fluoro-6-mercapto-1,1-dimethylbenzo[c][1,2,5]oxasilaborol-3(1H)-ol], the minimal inhibitory concentration (MIC) with E. faecalis ATCC 29212 is 12.5 µg/mL (≈ 54.8 µM); in the experiment on E. faecium ATCC 6057, 12.5 µg/mL (≈ 54.8 µM); in experiment [1] it was 12.5 µg/mL (≈ 54.8 µM); in [2], 6.25 µg/mL (≈ 27.4 µM); with K. pneumoniae ATCC 13883, greater than 100 µg/mL; in the experiment on S. marcescens ATCC 13880, greater than 100 µg/mL. Further, the minimum inhibitory concentration (MIC) (in experiment [3]; in experiment [4]; in the experiment on C. tropicalis ATCC 750; in the experiment with S. cerevisiae ATCC 9763 (setting [5])) was greater than 100 µg/mL in each case. The MBC in experiment [1] and in experiment [2] was 25 µg/mL (≈ 110 µM) throughout.
For the compound `CC(=O)CCSc1c(F)cc2c(c1F)[Si](C)(C)OB2O` [Compound 3, 4-((5,7-Difluoro-3-hydroxy-1,1-dimethyl-1,3-dihydrobenzo[c][1,2,5]oxasilaborol-6-yl)thio)butan-2-one], the MBC (against E. faecalis ATCC 29212; against E. faecium ATCC 6057; in [1]; in experiment [2]) was 200 µg/mL (≈ 632 µM) each time. In addition, the minimal inhibitory concentration (MIC) in the experiment on E. faecalis ATCC 29212 is 25 µg/mL (≈ 79.1 µM); in the experiment on E. faecium ATCC 6057 it was 12.5 µg/mL (≈ 39.5 µM); in experiment [1], 50 µg/mL (≈ 158 µM); in [2] it was 25 µg/mL (≈ 79.1 µM); in the experiment on K. pneumoniae ATCC 13883, greater than 400 µg/mL; with S. marcescens ATCC 13880, greater than 400 µg/mL. Also, the MIC in experiment [3] was 200 µg/mL (≈ 632 µM); in experiment [4], 100 µg/mL (≈ 316 µM); in the experiment on C. tropicalis ATCC 750, greater than 400 µg/mL; in the experiment with S. cerevisiae ATCC 9763 (setting [5]), 400 µg/mL (≈ 1260 µM).
The MFC is the smallest concentration meeting the test's criterion for killing the fungus. With `COC(=O)CCSc1ccc2c(c1F)[Si](C)(C)OB2O` [Compound 4, Methyl 3-((7-fluoro-3-hydroxy-1,1-dimethyl-1,3-dihydrobenzo[c][1,2,5]oxasilaborol-6-yl)thio)propanoate], the minimum inhibitory concentration (MIC) in the experiment on E. faecalis ATCC 29212 was 200 µg/mL (≈ 636 µM); in the experiment with E. faecium ATCC 6057, 100 µg/mL (≈ 318 µM); in experiment [1], 12.5 µg/mL (≈ 39.8 µM); in experiment [2], 25 µg/mL (≈ 79.6 µM); with K. pneumoniae ATCC 13883 it was greater than 400 µg/mL; with S. marcescens ATCC 13880 it was greater than 400 µg/mL. Further, the minimal inhibitory concentration (MIC) is 400 µg/mL (≈ 1270 µM) in [3], 400 µg/mL (≈ 1270 µM) in experiment [4], greater than 400 µg/mL with C. tropicalis ATCC 750 and 12.5 µg/mL (≈ 39.8 µM) with S. cerevisiae ATCC 9763 (setting [5]). Besides, the “-fold reduction of MIC in the presence of PAβN” value in the experiment with K. pneumoniae ATCC 13883 (PAβN 20 μg mL^−1, MHB + 1 mM MgSO4) is reported as 8 -fold. Also, the “diameter of inhibition zone” value came to 12 mm in [3] (C. guilliermondii IBA 155, (-) = zone not observed, paper discs 9 mm) and 32 mm with S. cerevisiae ATCC 9763 (S. cerevisiae ATCC 9763). Besides, the MFC with S. cerevisiae ATCC 9763 (Saccharomyces cerevisiae, ATCC9763, S. cerevisiae ATCC 9763) is 400 µg/mL (≈ 1270 µM).
For `C[Si]1(C)OB(O)c2cc(F)c(SCCC(=O)ON3C(=O)CCC3=O)c(F)c21` [Compound 5, 2,5-Dioxopyrrolidin-1-yl 3-((5,7-difluoro-3-hydroxy-1,1-dimethyl-1,3-dihydrobenzo-[c][1,2,5]oxasilaborol-6-yl)thio)propanoate], the minimum inhibitory concentration (MIC) is 400 µg/mL (≈ 963 µM) in the experiment with E. faecalis ATCC 29212; 400 µg/mL (≈ 963 µM) in the experiment with E. faecium ATCC 6057; 400 µg/mL (≈ 963 µM) in [1]; 400 µg/mL (≈ 963 µM) in [2]; greater than 400 µg/mL in the experiment on K. pneumoniae ATCC 13883; greater than 400 µg/mL with S. marcescens ATCC 13880. In addition, the MIC (in [3]; in [4]; in the experiment on C. tropicalis ATCC 750; in the experiment with S. cerevisiae ATCC 9763 (setting [5])) was greater than 400 µg/mL each time.
With `C[Si]1(C)OB(O)c2cc(F)c(SCCC#N)c(F)c21` [Compound 6, 3-((5,7-Difluoro-3-hydroxy-1,1-dimethyl-1,3-dihydrobenzo[c][1,2,5]oxasilaborol-6-yl)thio)propanenitrile], the MIC in the experiment with E. faecalis ATCC 29212 was 400 µg/mL (≈ 1340 µM); in the experiment with E. faecium ATCC 6057, 400 µg/mL (≈ 1340 µM); in [1], 12.5 µg/mL (≈ 41.8 µM); in [2], 50 µg/mL (≈ 167 µM); in the experiment on K. pneumoniae ATCC 13883 it was greater than 400 µg/mL; with S. marcescens ATCC 13880 it was greater than 400 µg/mL. The minimal inhibitory concentration (MIC) (in experiment [3]; in experiment [4]; with C. tropicalis ATCC 750; in the experiment on S. cerevisiae ATCC 9763 (setting [5])) was greater than 400 µg/mL throughout. For the same compound, the MBC in experiment [1] is greater than 400 µg/mL.
Turning to `C[Si]1(C)OB(O)c2cc(F)c(S(=O)(=O)N3CCOCC3)c(F)c21` [Compound 29, 5,7-Difluoro-1,1-dimethyl-6-(morpholinosulfonyl)benzo[c][1,2,5]oxasilaborol-3(1H)-ol], the minimum inhibitory concentration (MIC) in the experiment with E. faecalis ATCC 29212 was greater than 400 µg/mL; with E. faecium ATCC 6057, 400 µg/mL (≈ 1100 µM); in [1], 400 µg/mL (≈ 1100 µM); in experiment [2], 400 µg/mL (≈ 1100 µM); in the experiment with K. pneumoniae ATCC 13883, greater than 400 µg/mL; with S. marcescens ATCC 13880, greater than 400 µg/mL.
